Like-named read-outs stand apart in the source and are kept apart here. Residues, ends and D or L forms follow the SMILES beside them. No end group written: not given here. *: point of attachment. Biotin = O=C1N[C@H]2[C@H](CS[C@H]2CCCCC(=O)*)N1
Assays:
Insulin receptor = target: T1, Insulin receptor (Homo sapiens, UniProt P06213); test: BIAcore competition: IR pre-incubated with test substance, injected over immobilised insulin; format: binding; details: peptide about 40 µM, IR 450 nM
T1 construct: composed of the extracellular domains of both the α and β chains of the natural receptor; made in house; background b13 names human embryonic kidney 293 cells for the Bass et al. construct
Procedure: Flowcell-1 was used for background binding to correct for any non-specific binding. […] The surface was regenerated with 25 mM NaOH. […] Thus, the system was validated for competition studies. […] The amino acid sequences referred to in the tables are identified in Figures 47 and 48, except the 447 and 2A9 sequences, which are shown below. TABLE 9: BIAcore Results-Fusion Proteins Compete for Binding to IR

[1] = target: T2, human insulin receptor (HIR) (Homo sapiens, UniProt P06213); test: 125I-insulin competition binding assay on solubilised purified receptor
T2 construct: made in house

[2] = target: human IGF-1 receptor (HIGF-1R) (Homo sapiens, UniProt P08069); test: 125I-IGF-1 competition binding assay on solubilised purified receptor
IGF-1R [3] = target: T3, IGF-1R (Homo sapiens, UniProt P08069); test: Phage ELISA, binding of phage-displayed peptides to IGF-1R; details: 405 nm
T3 construct: Soluble IGF-1R was obtained from R&D Systems; purchased R&D Systems 391-GR/CF
Procedure: Figures 1A-10G. Amino acid sequences comprising the motif of Formulas 1 through 10. […] One hundred microliters of this solution was added to an appropriate number of wells in a 96-well microtiter plate (MaxiSorp plates, Nunc) and incubated overnight at 4°C. […] Subsequent steps are the same for pooled and clonal phage. […] Phage resuspended in MPBS were added to duplicate wells (100 µl/well) and incubated at RT for 1 h. […] Incubation was for 1 h at RT, followed by PBS washes as described. […] Phage ELISA. […] The wells were blocked with 200 µl of MPBS for 1.5 h at RT. Phage were added at 100 µl per well. Peptides were added as noted below and allowed to incubate at RT for 3 h. The plates were washed 3 times with PBST. A solution of 1:3000 diluted HRP:Anti-M13 conjugate at 100 µl per well of was added for 1 h. Following a repeat of the washing, 100 µl of ABTS was added for 15-30 min. […] Phage ELISA. […] Phage were added at 100 µl per well. Peptides were added as noted below and allowed to incubate at RT for 3 h. The plates were washed 3X with PBST. A solution of 1:3000 diluted HRP:Anti-M13 Conjugate at 100 µl per well of was added for 1 h. Following a repeat of the washing, 100 µl of ABTS was added for 15-30 min. The OD405 was measured using a SpectraMax 340 Microplate Spectrophotometer.

adipocytes = test: 3H-glucose uptake into adipocytes (fat cell assay, FFC); format: cell-based, Mouse; set-up: key to Resp.: -2 (antagonist); +2 (agonist); details: for Resp.: Subjective ranking, basal and sub maximal insulin, includes series A
IR = target: T4, IR (Homo sapiens, UniProt P06213); test: Phage ELISA, binding of phage-displayed peptides to IR; details: 405 nm
T4 construct: composed of the extracellular domains of both the α and β chains of the natural receptor; made in house; background b13 names human embryonic kidney 293 cells for the Bass et al. construct
Procedure: Amino acid sequences comprising the motif of Formulas 1 through 10. […] Fifty microliters of this solution was added to an appropriate number of wells in a 96-well microtiter plate (MaxiSorp plates, Nunc) and incubated overnight at 4°C. […] To isolate specific binders, each library was panned against a soluble form of the human IR. This IR is composed of the extracellular domains of both the α and β chains of the natural receptor, as well as the constant domain from immunoglobulin Fc, retaining the β-α-α-β structure described above. Because the IR is expressed in a eukaryotic system, disulfide bond formation and glycosylation patterns should mimic the wild-type receptor. The details of this recombinant protein construct are described in Bass et al. (1996). Phage ELISA. […] The wells were blocked with 200 µl of MPBS for 1.5 h at RT. […] Peptides were added as noted below and allowed to incubate at RT for 3 h. The plates were washed 3 times with PBST. A solution of 1:3000 diluted HRP:Anti-M13 conjugate at 100 µl per well of was added for 1 h. Following a repeat of the washing, 100 µl of ABTS was added for 15-30 min. […] Phage ELISA. […] Peptides were added as noted below and allowed to incubate at RT for 3 h. […] A solution of 1:3000 diluted HRP:Anti-M13 Conjugate at 100 µl per well of was added for 1 h. Following a repeat of the washing, 100 µl of ABTS was added for 15-30 min. The OD405 was measured using a SpectraMax 340 Microplate Spectrophotometer.

[4] = Precipitate in diluted peptide stock prior to adding to the fat cell assay; solubility under assay conditions; format: physicochemical; details: diluted stock prior to adding to assay
IGF-1R [5] = target: T3, IGF-1R; test: IGF-1R peptide assay, time-resolved FRET, competition with biotinylated 20E2 (IC50); format: binding
From the text: Assays have been developed using Time-Resolved Fluorescence Resonance Energy Transfer (FRET). These assays are not radioactive, homogeneous (no wash steps), and can be rapidly carried out in 96- or 384-well microtiter plate format facilitating their use in high-throughput screening assays for small organic molecules.
The IGF-1R was labeled with Europium (Eu) by EG&G Wallac.
The Streptavidin-Allophycocynanin (SA-APC) was obtained from Prozyme Cat. # PJ25S.
• a. Preparation of the Assay Mix. […] This mixture was allowed to pre-incubate at RT in the dark for 1-2 h before competitor was added. • b. […] 100 µl of Buffer (TBS pH 8.0 + 0.1 % BSA) were dispensed to wells in columns 1 through 11. Competitors and Buffer were added to Column 12 wells so that the total volume is 150 µl. • c. […] Compounds are dissolved in 100% DMSO. Therefore, 100 µl of Buffer (TBS pH 8.0 + 0.1 % BSA) with 4% DMSO are dispensed to wells in columns 1 through 10. […] Compounds (6 µl) are added into 144 µl Buffer (No DMSO) to Column 12 wells. • d. Dilutions were performed across columns on the plate. Once competitors were dispensed into Column 12 and mixed, 50 µl of the solution Column 12 were transferred to wells in 11 and mixed. 50 µl of the Column 11 mixture was transferred to Column 10 wells. This was repeated until 50 µl of Column 3 mixture was transferred to Column 2 wells. Once accomplished to Column 2, 50 µl from Column 2 were removed and discarded. Column 1 wells were reserved for No Competitor Wells. 100 µl volume was therefore maintained across all columns. • e. 50 µl of the Assay Mix was dispensed into wells on a new 96-well microtiter plate. 50 µl from the Dilutions Plate were then added to this plate. • f. […] This covered plate was allowed to incubate at RT overnight. • g. […] Compounds begin at 200 µM in a working concentration of 2% DMSO. Controls also contained 2% DMSO.

CC(C)C[C@H](NC(=O)CNC(=O)[C@H](CC(N)=O)NC(=O)[C@H](Cc1ccc(O)cc1)NC(=O)[C@H](Cc1ccccc1)NC(=O)[C@H](C)NC(=O)[C@H](CCCNC(=N)N)NC(=O)[C@H](CC(=O)O)NC(=O)[C@@H](N)CCCCN)C(=O)N[C@@H](CCCNC(=N)N)C(=O)N[C@@H](CC(=O)O)C(=O)N[C@@H](CC(C)C)C(=O)N[C@H](C(=O)NCC(=O)N[C@@H](C)C(=O)N[C@H](C(=O)N[C@@H](Cc1ccc(O)cc1)C(=O)NCC(=O)N[C@@H](C)C(=O)N[C@@H](Cc1c[nH]c2ccccc12)C(=O)N[C@@H](CC(=O)O)C(=O)N[C@@H](CCCCN)C(=O)N[C@@H](CCCCNC(=O)CCCC[C@@H]1SC[C@@H]2NC(=O)N[C@@H]21)C(N)=O)C(C)C)C(C)C [Clone 20C11] (H-KDRAFYNGLRDLVGAVYGAWDKK(Biotin)-NH2)
% Binding (Insulin receptor): 38% | Kd ([1]; read-out: Kd (µM) HIR): 4.5 µM | Kd [2]: 13 µM

CC[C@H](C)[C@H](NC(=O)[C@H](C)NC(=O)[C@H](CC(=O)O)NC(=O)[C@H](Cc1ccc(O)cc1)NC(=O)[C@H](Cc1ccccc1)NC(=O)[C@H](CC(=O)O)NC(=O)[C@H](CCCCN)NC(=O)[C@H](Cc1ccc(O)cc1)NC(=O)[C@@H](N)CC(=O)O)C(=O)N[C@@H](CC(=O)O)C(=O)N[C@@H](CCC(N)=O)C(=O)N[C@@H](CC(C)C)C(=O)N[C@H](C(=O)N[C@@H](CCCNC(=N)N)C(=O)NCC(=O)N[C@@H](CO)C(=O)N[C@@H](C)C(=O)N[C@@H](CCCNC(=N)N)C(=O)N[C@@H](C)C(=O)NCC(=O)NCC(=O)N[C@H](C(=O)N[C@@H](CCCNC(=N)N)C(=O)N[C@@H](CC(=O)O)C(=O)N[C@@H](CCCCN)C(=O)N[C@@H](CCCCNC(=O)CCCC[C@@H]1SC[C@@H]2NC(=O)N[C@@H]21)C(N)=O)[C@@H](C)O)C(C)C [Clone 20E2] (H-DYKDFYDAIDQLVRGSARAGGTRDKK(Biotin)-NH2; N-terminus assumed)
Absorbance Values sIGF-1R (IGF-1R [3]): 2.15 | Comments (dose response, effect at basal insulin) (adipocytes): Biphasic dose response curve (needs repeating) | ED50 (adipocytes; Estimated, not calculated values): Approx 20 µM | Resp. (adipocytes): +2 | Absorbance Values IR (IR): 1.01

CSCC[C@H](NC(=O)[C@@H](NC(=O)[C@H](CO)NC(=O)[C@H](CC(C)C)NC(=O)[C@H](CC(C)C)NC(=O)[C@H](C)NC(=O)[C@H](CO)NC(=O)[C@H](Cc1c[nH]c2ccccc12)NC(=O)[C@@H](N)CCCCN)C(C)C)C(=O)N[C@@H](CC(=O)O)C(=O)N[C@H](C(=O)NCC(=O)N[C@@H](Cc1ccccc1)C(=O)N[C@@H](Cc1ccc(O)cc1)C(=O)N[C@@H](C)C(=O)N[C@@H](Cc1c[nH]c2ccccc12)C(=O)N[C@@H](Cc1ccccc1)C(=O)N[C@@H](CC(=O)O)C(=O)N[C@@H](CC(=O)O)C(=O)N[C@@H](C)C(=O)N[C@H](C(=O)N[C@@H](CCCCN)C(=O)N[C@@H](CCCCNC(=O)CCCC[C@@H]1SC[C@@H]2NC(=O)N[C@@H]21)C(N)=O)C(C)C)[C@@H](C)O [Clone B8] (H-KWSALLSVMDTGFYAWFDDAVKK(Biotin)-NH2; N-terminus assumed)
Absorbance Values sIGF-1R (IGF-1R [3]): 2.55 | Resp. (adipocytes): 0 | Ratio ([2]; Kd HIGF1R / Kd HIR): 20 | Absorbance Values IR (IR): 1.30

CC(C)C[C@H](NC(=O)[C@@H](NC(=O)[C@@H](N)CCCCN)C(C)C)C(=O)N[C@@H](CCC(N)=O)C(=O)N[C@@H](C)C(=O)N[C@@H](CCCNC(=N)N)C(=O)N[C@@H](Cc1c[nH]cn1)C(=O)NCC(=O)N[C@@H](CS)C(=O)N[C@@H](CC(=O)O)C(=O)N[C@@H](CO)C(=O)N[C@H](C(=O)N[C@@H](CO)C(=O)N[C@@H](CC(=O)O)C(=O)N[C@@H](CS)C(=O)N[C@@H](Cc1ccccc1)C(=O)N[C@@H](Cc1ccc(O)cc1)C(=O)N[C@@H](CCC(=O)O)C(=O)N[C@@H](Cc1c[nH]c2ccccc12)C(=O)N[C@@H](Cc1ccccc1)C(=O)N[C@@H](C)C(=O)N[C@@H](CCCCN)C(=O)N[C@@H](CCCCNC(=O)CCCC[C@@H]1SC[C@@H]2NC(=O)N[C@@H]21)C(N)=O)C(C)C [Clone D102] (H-KVLQARHGCDSVSDCFYEWFAKK(Biotin)-NH2; N-terminus assumed)
Resp. (adipocytes): 0 | Comments (precipitation) [4]: Precipitates

CSCC[C@H](NC(=O)[C@H](CC(C)C)NC(=O)[C@H](CCCNC(=N)N)NC(=O)[C@H](CC(=O)O)NC(=O)[C@H](CC(C)C)NC(=O)[C@H](C)NC(=O)[C@H](CC(=O)O)NC(=O)[C@@H](N)CC(C)C)C(=O)N[C@@H](CCCNC(=N)N)C(=O)N[C@@H](Cc1ccc(O)cc1)C(=O)N[C@@H](Cc1ccccc1)C(=O)N[C@@H](CCC(=O)O)C(=O)N[C@@H](CCC(=O)O)C(=O)N[C@@H](CCCNC(=N)N)C(=O)N1CCC[C@H]1C(=O)N[C@@H](CO)C(=O)N[C@@H](CC(C)C)C(N)=O [Clone S173]
IC50 (IGF-1R [5]): 5.62 µM

CC(C)C[C@H](NC(=O)[C@@H]1CCCN1)C(=O)N[C@@H](C)C(=O)N[C@@H](CCC(=O)O)C(=O)N[C@@H](CC(C)C)C(=O)N[C@@H](Cc1c[nH]c2ccccc12)C(=O)N[C@@H](C)C(=O)N[C@@H](Cc1ccc(O)cc1)C(=O)N[C@@H](Cc1ccccc1)C(=O)N[C@@H](CCC(=O)O)C(=O)N[C@@H](Cc1c[nH]cn1)C(=O)N[C@@H](CO)C(=O)N[C@@H](CCC(=O)O)C(=O)N[C@@H](CCC(N)=O)C(=O)NCC(=O)N[C@@H](CCCNC(=N)N)C(=O)N[C@@H](CO)C(=O)N[C@@H](CO)C(=O)N[C@@H](C)C(=O)N[C@@H](Cc1c[nH]cn1)C(N)=O [Clone S174]
IC50 (IGF-1R [5]): 1.46 µM | Kd ([1]; read-out: HIR affinity): 16 µM

AFYDWFAKK-NH2 [Clone S167]
IC50 (IGF-1R [5]): ~100 µM | Kd ([1]; read-out: HIR affinity): > 20 µM

EHWNTVDPFYFTLFEWLRESG-NH2 [Clone S177]
IC50 (IGF-1R [5]): 2.04 µM | Kd ([1]; read-out: HIR affinity): 2.7 µM

EHWNTVDPFYQYFSELLRESG-NH2 [Clone S178]
IC50 (IGF-1R [5]): 0.24 µM | Kd ([1]; read-out: HIR affinity): 0.13 µM

KSMFVAGSDRWPGYGVLADWLKK [Clone F2]
Absorbance Values sIGF-1R (IGF-1R [3]): 2.08 | Absorbance Values IR (IR): 1.43

NGVERAGTGDNFYDWFVAQLH-NH2 [Clone S176]
IC50 (IGF-1R [5]): 0.418 µM | Kd ([1]; read-out: HIR affinity): 0.47 µM

QSDSGTVHDRFYGWFRDTWAS-NH2 [Clone S179]
IC50 (IGF-1R [5]): 5.35 µM | Kd ([1]; read-out: HIR affinity): 0.54 µM

TFYSCLASLLTGTPQPNRGPWERCR [20C-3-G3-IGFR]
IC50 (IGF-1R [5]): 0.184 µM

From EP1383793B1 (priority 2000, dated 2001)
